Experimental data as given in US9662357B2, “Bacterium and extracts of said bacterium and the use of same in dermatology” (PIERRE FABRE DERMO-COSMETIQUE, priority 2010, dated 2017).

How the values were obtained:
Type in all cases: cell-based
[1] = tested on: Bacterium LMB64; test: Antibiotic sensitivity of bacterium LMB64, zone of inhibition; details: disc load given with each antibiotic; for Zone of inhibition diameter (mm) LB ½: LB ½ dilution medium; for Zone of inhibition diameter (mm) LB ⅕: LB ⅕ dilution medium; for Zone of inhibition diameter (mm) R3: R3 medium
[2] = tested on: TSLP; test: PCR array, NHEK atopic dermatitis phenotype: TSLP; details: Homo sapiens, read-out: percentage of inhibition TSLP
Experimental: (§1) The study was carried out on normal human epidermal keratinocytes (NHEK, K-SFM culture medium) in the context of the induction of an atopic dermatitis phenotype.

[3] = tested on: IL-1α; test: PCR array, NHEK atopic dermatitis phenotype: IL-1α; details: Homo sapiens, read-out: percentage of inhibition IL-1α
Experimental: as §1

[4] = tested on: IL-18; test: PCR array, NHEK atopic dermatitis phenotype: IL-18; details: Homo sapiens, read-out: percentage of inhibition IL-18
Experimental: as §1

[5] = tested on: IFN-β1; test: PCR array, NHEK atopic dermatitis phenotype: IFN-β1; details: Homo sapiens, read-out: percentage of inhibition IFN-β1
Experimental: as §1

[6] = tested on: IL-8; test: PCR array, NHEK atopic dermatitis phenotype: IL-8; details: Homo sapiens, read-out: percentage of inhibition IL-8
Experimental: as §1

[7] = tested on: MlP-1α; test: PCR array, NHEK atopic dermatitis phenotype: MlP-1α; details: Homo sapiens, read-out: percentage of inhibition MlP-1α
Experimental: as §1

[8] = tested on: RANTES; test: PCR array, NHEK atopic dermatitis phenotype: RANTES; details: Homo sapiens, read-out: percentage of inhibition RANTES
Experimental: as §1

[9] = tested on: MIP-3α; test: PCR array, NHEK atopic dermatitis phenotype: MIP-3α; details: Homo sapiens, read-out: percentage of inhibition MIP-3α
Experimental: as §1

[10] = tested on: MDC; test: PCR array, NHEK atopic dermatitis phenotype: MDC; details: Homo sapiens, read-out: percentage of inhibition MDC
Experimental: as §1

[11] = tested on: Skinkine; test: PCR array, NHEK atopic dermatitis phenotype: Skinkine; details: Homo sapiens, read-out: percentage of inhibition Skinkine
Experimental: as §1

[12] = tested on: IL-4-R; test: PCR array, NHEK atopic dermatitis phenotype: IL-4-R; details: Homo sapiens, read-out: percentage of inhibition IL-4-R
Experimental: as §1

[13] = tested on: RARRES3; test: PCR array, NHEK atopic dermatitis phenotype: RARRES3; details: Homo sapiens, read-out: percentage of inhibition RARRES3
Experimental: as §1

Row | Compound | Zone of inhibition diameter (mm) LB ½ [1] [mm] | Zone of inhibition diameter (mm) LB ⅕ [1] [mm] | Zone of inhibition diameter (mm) R3 [1] [mm] | further results
1 | CC1(C)S[C@@H]2[C@H](NC(=O)[C@H](N)c3ccccc3)C(=O)N2[C@H]1C(=O)O [Ampicillin] | 28 | 29 | 29 | –
2 | CN[C@H](CC(C)C)C(=O)N[C@H]1C(=O)N[C@@H](CC(N)=O)C(=O)N[C@H]2C(=O)N[C@H]3C(=O)N[C@H](C(=O)N[C@H](C(=O)O)c4cc(O)cc(O)c4-c4cc3ccc4O)[C@H](O)c3ccc(c(Cl)c3)Oc3cc2cc(c3O[C@@H]2O[C@H](CO)[C@@H](O)[C@H](O)[C@H]2O[C@H]2C[C@](C)(N)[C@H](O)[C@H](C)O2)Oc2ccc(cc2Cl)[C@H]1O [Vancomycin] | 21 | 21 | 20 | –
3 | NC[C@H]1O[C@H](O[C@H]2[C@H](O)[C@@H](O[C@H]3O[C@H](CO)[C@@H](O)[C@H](N)[C@H]3O)[C@H](N)C[C@@H]2N)[C@H](O)[C@@H](O)[C@@H]1O [Kanamycin] | 30 | 27 | 27 | –
4 | Penicillin | 26 | 20 | 21 | –
5 | Polymyxin B | 15 | 13 | 11 | –
6 | O=C(O)c1cn(C2CC2)c2cc(N3CCNCC3)c(F)cc2c1=O [Ciprofloxacin] | – | 34 | 38 | –
7 | [H]/N=C(/N)N[C@H]1[C@H](O)[C@@H](O)[C@H](O[C@@H]2O[C@@H](C)[C@](O)(C=O)[C@H]2O[C@@H]2O[C@@H](CO)[C@H](O)[C@@H](O)[C@@H]2NC)[C@@H](N/C(N)=N\[H])[C@@H]1O [Streptomycin] | 25 | 24 | 25 | –
8 | O=C(N[C@H](CO)[C@H](O)c1ccc([N+](=O)[O-])cc1)C(Cl)Cl [Chloramphenicol] | 26 | 24 | 29 | –
9 | CN(C)[C@@H]1C(O)=C(C(N)=O)C(=O)[C@@]2(O)C(O)=C3C(=O)c4c(O)cccc4[C@@](C)(O)[C@H]3C[C@@H]12 [Tetracycline] | 25 | 20 | 30 | –
10 | C[C@@H]1C[C@H]2[C@@H]3CCC4=CC(=O)C=C[C@]4(C)[C@@]3(F)[C@@H](O)C[C@]2(C)[C@@]1(O)C(=O)CO [Dexamethasone] | – | – | – | inhibition at 2 µM [2]: 91%; inhibition at 2 µM [3]: 54%; inhibition at 2 µM [4]: 44%; inhibition at 2 µM [5]: 49%; inhibition at 2 µM [6]: 75%; inhibition at 2 µM [7]: 76%; inhibition at 2 µM [8]: 12%; inhibition at 2 µM [9]: 40%; inhibition at 2 µM [10]: 45%; inhibition at 2 µM [11]: 59%; inhibition at 2 µM [12]: 75%; inhibition at 2 µM [13]: 28%
11 | CO[C@H]1/C=C/O[C@@]2(C)Oc3c(C)c(O)c4c(O)c(c(/C=N/N5CCN(C)CC5)c(O)c4c3C2=O)NC(=O)/C(C)=C\C=C\[C@H](C)[C@H](O)[C@@H](C)[C@@H](O)[C@@H](C)[C@H](OC(C)=O)[C@@H]1C [Rifampicin] | 19 | 15 | 20 | –
